From US11149043B2 (Calico Life Sciences LLC, priority 2018, dated 2021)
Converted amounts (≈) assume the structure as drawn. Where a name gives a salt, the structure may show the parent alone.

Assay: Solubility assay (high throughput 96-well plate, pH 7.4 phosphate buffer)
Format: physicochemical
Details: aqueous buffer, thermodynamic from solid, shaken two days at room temperature, UV-UPLC
Experimental: Solubility measurements were performed using a high throughput 96-well plate based assay. For this, 0.2 mg of sample compound was weighed and added to a sample plate in triplicate and 650 μL of pH 7.4 phosphate buffer was added. The sample plate was capped, allowed to shake on a plate shaker for two days at room temperature, and then centrifuged (2000 rpm, 10 minutes) to settle undissolved solids. Approximately 600 μL of the aqueous supernatant slurry from each sample plate was transferred to a filter plate mounted on top of a receiver plate. Vacuum was applied to collect the filtrate. Appropriate dilutions were made in 50/50 methanol/water and quantification for concentration was performed against known standards by UV-UPLC. Some preferred compounds of the invention have greater solubility than the parent compound (P), N,N′-[(2S)-2-hydroxybicyclo[2.2.2]octane-1,4-diyl]bis[2-(4-chloro-3-fluorophenoxy)acetamide].

| SMILES | solubility at 2 days |
| --- | --- |
| N[C@@H](CC(=O)O[C@H]1CC2(NC(=O)COc3ccc(Cl)c(F)c3)CCC1(NC(=O)COc1ccc(Cl)c(F)c1)CC2)C(=O)O [Compound 102, (2S)-2-amino-4-({(2S)-1,4-bis[2-(4-chloro-3-fluorophenoxy)acetamido]bicyclo[2.2.2]octan-2-yl}oxy)-4-oxobutanoic acid] | 59 µM (≈ 38 µg/mL) |
| O=C(COc1ccc(Cl)c(F)c1)NC12CCC(NC(=O)COc3ccc(Cl)c(F)c3)(CC1)[C@@H](OC(=O)Cc1ccccc1OP(=O)(O)O)C2 [Compound 115] | 936 µM (≈ 696 µg/mL) |
| CN(C(=O)O[C@H]1CC2(NC(=O)COc3ccc(Cl)c(F)c3)CCC1(NC(=O)COc1ccc(Cl)c(F)c1)CC2)c1ncccc1COP(=O)(O)O [Compound 116, (2S)-1,4-bis[2-(4-chloro-3-fluorophenoxy)acetamido]bicyclo[2.2.2]octan-2-yl methyl{3-[(phosphonooxy)methyl]pyridin-2-yl}carbamate] | 903 µM (≈ 698 µg/mL) |
| O=C(COc1ccc(Cl)c(F)c1)NC12CCC(NC(=O)COc3ccc(Cl)c(F)c3)(CC1)[C@@H](OS(=O)(=O)O)C2 [Compound 125, (2S)-1,4-bis[2-(4-chloro-3-fluorophenoxy)acetamido]bicyclo[2.2.2]octan-2-yl hydrogen sulfate] | 152 µM |

Second part, the molecule after the results:

| solubility at 2 days | SMILES |
| --- | --- |
| 812 µM (≈ 565 µg/mL) | O=C(COc1ccc(Cl)c(F)c1)NC12CCC(NC(=O)COc3ccc(Cl)c(F)c3)(CC1)[C@@H](OC(=O)CCCOP(=O)(O)O)C2 [Compound 120, (2S)-1,4-bis[2-(4-chloro-3-fluorophenoxy)acetamido]bicyclo[2.2.2]octan-2-yl 4-(phosphonooxy)butanoate] |
| 317 µM (≈ 229 µg/mL) | CC(C)(COP(=O)(O)O)CC(=O)O[C@H]1CC2(NC(=O)COc3ccc(Cl)c(F)c3)CCC1(NC(=O)COc1ccc(Cl)c(F)c1)CC2 [Compound 122, (2S)-1,4-bis[2-(4-chloro-3-fluorophenoxy)acetamido]bicyclo[2.2.2]octan-2-yl 3,3-dimethyl-4-(phosphonooxy)butanoate] |
| > 1000 µM | O=C(COc1ccc(Cl)c(F)c1)NC12CCC(NC(=O)COc3ccc(Cl)c(F)c3)(CC1)[C@@H](OC(=O)OCCOP(=O)(O)O)C2 [Compound 121, (2S)-1,4-bis[2-(4-chloro-3-fluorophenoxy)acetamido]bicyclo[2.2.2]octan-2-yl 2-(phosphonooxy)ethyl carbonate] |
| 645 µM (≈ 458 µg/mL) | O=C(COc1ccc(Cl)c(F)c1)NC12CCC(NC(=O)COc3ccc(Cl)c(F)c3)(CC1)[C@@H](OC(=O)CCCCOP(=O)(O)O)C2 [Compound 127, (2S)-1,4-bis[2-(4-chloro-3-fluorophenoxy)acetamido]bicyclo[2.2.2]octan-2-yl 5-(phosphonooxy)pentanoate] |
| > 1000 µM | O=C(COc1ccc(Cl)c(F)c1)NC12CCC(NC(=O)COc3ccc(Cl)c(F)c3)(CC1)[C@@H](OCOP(=O)(O)O)C2 [Compound 131, ({(2S)-1,4-bis[2-(4-chloro-3-fluorophenoxy)acetamido]bicyclo[2.2.2]octan-2-yl}oxy)methyl dihydrogen phosphate] |
| 598 µM (≈ 416 µg/mL) | O=C(COc1ccc(Cl)c(F)c1)NC12CCC(NC(=O)COc3ccc(Cl)c(F)c3)(CC1)[C@@H](OC(=O)NCCOP(=O)(O)O)C2 [Compound 117] |
| < 0.82 µM | CC(=O)O[C@H]1CC2(NC(=O)COc3ccc(Cl)c(F)c3)CCC1(NC(=O)COc1ccc(Cl)c(F)c1)CC2 (single isomer, unassigned) [Compound 100] |
